In ChEMBL document CHEMBL6083284, “Identification of TAK-756, A Potent TAK1 Inhibitor for the Treatment of Osteoarthritis through Intra-Articular Administration” (J Med Chem, 2024):
Converted amounts (≈) assume the structure as drawn.

Columns and labels:
[1] = Inhibition of MMP3 production in human C20/A4 cells by Nano-Glo HiBit assay; conditions: C20/A4, read-out: pEC50 (converted)
[2] = Inhibition of IL-6 production in human SW982 cells by Nano-Glo HiBit assay; conditions: SW982, read-out: pEC50 (converted)
[3] = Partition coefficient, logP of compound in octanol/water; format: physicochemical
[4] = Thermodynamic solubility in simulated synovial fluid containing PBS/BSA incubated for 20 hrs by HPLC-HRMS analysis; format: physicochemical; conditions: read-out: Therm_solubility
[5] = Drug concentration in synovial fluid of Sprague-Dawley rat at 250 ug, IART measured for 168 hrs by LC-MS/MS analysis; format: ADME, tissue-based; conditions: for concentration at 168 h: Sprague-Dawley, synovial fluid, 250 ug, read-out: Ct
[6] = Free drug concentration in synovial fluid of Sprague-Dawley rat at 250 ug, IART measured for 168 hrs by LC-MS/MS analysis; format: ADME, tissue-based; conditions: in vivo, other, dose 250 µg
[7] = Terminal half life in plasma of Sprague-Dawley rat at 250 ug, IART measured for 168 hrs by LC-MS/MS analysis; format: ADME, cell-free; conditions: dose 250 µg, read-out: beta t1/2 (converted)
[8] = Protein binding in bovine synovial fluid assessed as unbound fraction at 5 uM incubated for 4 hrs by rapid equilibrium dialysis; format: ADME, tissue-based, Bos taurus; conditions: cattle
[9] = target: T1, Interleukin-1 receptor-associated kinase 4 (Homo sapiens) (UniProt Q9NWZ3); assay: Inhibition of IRAK4 (unknown origin) at 1 uM relative to control
T1 sequence (whole entry): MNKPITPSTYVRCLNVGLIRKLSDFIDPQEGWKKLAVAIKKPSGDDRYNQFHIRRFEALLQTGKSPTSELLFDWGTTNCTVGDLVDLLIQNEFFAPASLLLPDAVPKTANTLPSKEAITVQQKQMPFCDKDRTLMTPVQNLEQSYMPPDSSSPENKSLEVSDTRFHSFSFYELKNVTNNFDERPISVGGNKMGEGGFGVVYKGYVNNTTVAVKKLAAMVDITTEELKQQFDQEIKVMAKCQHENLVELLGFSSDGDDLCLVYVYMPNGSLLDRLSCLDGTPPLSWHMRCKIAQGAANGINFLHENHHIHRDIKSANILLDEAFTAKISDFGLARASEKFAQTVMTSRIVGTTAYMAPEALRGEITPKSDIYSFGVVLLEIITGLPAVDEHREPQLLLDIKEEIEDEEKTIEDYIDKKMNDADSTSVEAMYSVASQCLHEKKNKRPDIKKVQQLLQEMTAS

[10] = target: Interleukin-1 receptor-associated kinase 1 (Homo sapiens) (UniProt P51617); assay: Inhibition of IRAK1 (unknown origin) at 1 uM relative to control
Sequence of Interleukin-1 receptor-associated kinase 1 (Homo sapiens) (P51617 whole entry, looked up): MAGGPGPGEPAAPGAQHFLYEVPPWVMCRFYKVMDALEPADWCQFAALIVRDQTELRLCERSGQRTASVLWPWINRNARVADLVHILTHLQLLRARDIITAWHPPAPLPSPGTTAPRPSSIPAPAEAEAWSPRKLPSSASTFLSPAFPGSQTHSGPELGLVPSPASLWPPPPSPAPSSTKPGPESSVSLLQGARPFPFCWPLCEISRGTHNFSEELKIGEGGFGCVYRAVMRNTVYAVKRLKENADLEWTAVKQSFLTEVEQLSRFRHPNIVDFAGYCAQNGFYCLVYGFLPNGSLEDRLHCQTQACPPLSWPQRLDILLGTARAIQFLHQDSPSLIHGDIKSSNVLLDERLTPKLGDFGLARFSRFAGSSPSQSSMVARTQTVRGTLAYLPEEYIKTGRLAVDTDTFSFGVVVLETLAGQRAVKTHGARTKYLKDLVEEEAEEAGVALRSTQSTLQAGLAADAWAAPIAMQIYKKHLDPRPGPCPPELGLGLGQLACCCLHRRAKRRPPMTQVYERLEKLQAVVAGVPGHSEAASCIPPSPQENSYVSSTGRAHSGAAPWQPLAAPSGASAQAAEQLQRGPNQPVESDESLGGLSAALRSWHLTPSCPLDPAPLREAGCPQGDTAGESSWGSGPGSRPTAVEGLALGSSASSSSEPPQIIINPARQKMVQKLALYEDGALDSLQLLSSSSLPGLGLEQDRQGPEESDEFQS

[11] = target: TRAF2 and NCK-interacting protein kinase (Homo sapiens) (UniProt Q9UKE5); assay: Inhibition of TNIK (unknown origin) at 1 uM relative to control
[12] = target: Misshapen-like kinase 1 (Homo sapiens) (UniProt Q8N4C8); assay: Inhibition of MINK1 (unknown origin) at 1 uM relative to control
Sequence of Misshapen-like kinase 1 (Homo sapiens) (Q8N4C8 whole entry, looked up): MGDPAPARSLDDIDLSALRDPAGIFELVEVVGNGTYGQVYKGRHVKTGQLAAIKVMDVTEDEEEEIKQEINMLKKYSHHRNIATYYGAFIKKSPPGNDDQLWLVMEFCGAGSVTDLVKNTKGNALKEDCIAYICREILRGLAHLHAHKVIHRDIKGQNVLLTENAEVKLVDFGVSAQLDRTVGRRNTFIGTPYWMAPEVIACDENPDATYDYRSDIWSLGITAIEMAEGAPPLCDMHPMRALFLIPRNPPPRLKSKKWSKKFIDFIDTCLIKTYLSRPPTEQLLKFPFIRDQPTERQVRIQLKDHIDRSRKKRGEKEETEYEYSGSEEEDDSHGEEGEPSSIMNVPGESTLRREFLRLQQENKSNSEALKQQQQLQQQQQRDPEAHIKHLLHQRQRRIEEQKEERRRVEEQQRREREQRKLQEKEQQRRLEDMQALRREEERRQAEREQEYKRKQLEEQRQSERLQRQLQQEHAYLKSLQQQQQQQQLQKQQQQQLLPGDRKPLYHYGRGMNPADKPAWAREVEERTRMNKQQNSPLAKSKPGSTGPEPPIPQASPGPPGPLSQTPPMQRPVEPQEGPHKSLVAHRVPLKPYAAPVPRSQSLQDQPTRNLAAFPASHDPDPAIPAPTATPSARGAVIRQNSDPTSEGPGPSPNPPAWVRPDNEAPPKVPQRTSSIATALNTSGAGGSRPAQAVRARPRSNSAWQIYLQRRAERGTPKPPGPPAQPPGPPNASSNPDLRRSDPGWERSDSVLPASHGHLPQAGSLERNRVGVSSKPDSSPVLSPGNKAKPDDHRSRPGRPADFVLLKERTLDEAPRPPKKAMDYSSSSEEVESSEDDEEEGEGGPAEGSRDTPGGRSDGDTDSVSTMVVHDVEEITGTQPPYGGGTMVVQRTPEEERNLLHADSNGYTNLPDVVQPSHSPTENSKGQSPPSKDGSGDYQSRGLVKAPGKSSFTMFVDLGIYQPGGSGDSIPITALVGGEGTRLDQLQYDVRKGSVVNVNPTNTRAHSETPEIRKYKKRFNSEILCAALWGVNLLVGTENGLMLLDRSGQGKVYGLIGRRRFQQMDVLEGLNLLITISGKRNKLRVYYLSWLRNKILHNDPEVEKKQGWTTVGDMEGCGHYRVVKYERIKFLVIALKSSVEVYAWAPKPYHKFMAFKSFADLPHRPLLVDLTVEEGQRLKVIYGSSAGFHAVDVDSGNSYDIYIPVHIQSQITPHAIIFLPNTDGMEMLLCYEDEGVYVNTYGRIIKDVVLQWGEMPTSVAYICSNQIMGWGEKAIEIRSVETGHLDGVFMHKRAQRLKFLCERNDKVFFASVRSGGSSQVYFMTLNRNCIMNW

[13] = Drug concentration in tibia of Sprague-Dawley rat assessed as accumulation in tibial plateau at 250 ug, IART measured for 168 hrs by LC-MS/MS analysis; format: ADME, tissue-based; conditions: dose 250 µg, read-out: Drug uptake
[14] = Drug concentration in tibia of Sprague-Dawley rat assessed as accumulation in synovial membrane of tibial plateau at 250 ug, IART measured for 168 hrs by LC-MS/MS analysis; format: ADME; conditions: dose 250 µg, read-out: Ct
[15] = target: Receptor-type tyrosine-protein kinase FLT3 (Homo sapiens) (UniProt P36888); assay: Inhibition of FLT3 (unknown origin) at 1 uM relative to control
Sequence of Receptor-type tyrosine-protein kinase FLT3 (Homo sapiens) (P36888 whole entry): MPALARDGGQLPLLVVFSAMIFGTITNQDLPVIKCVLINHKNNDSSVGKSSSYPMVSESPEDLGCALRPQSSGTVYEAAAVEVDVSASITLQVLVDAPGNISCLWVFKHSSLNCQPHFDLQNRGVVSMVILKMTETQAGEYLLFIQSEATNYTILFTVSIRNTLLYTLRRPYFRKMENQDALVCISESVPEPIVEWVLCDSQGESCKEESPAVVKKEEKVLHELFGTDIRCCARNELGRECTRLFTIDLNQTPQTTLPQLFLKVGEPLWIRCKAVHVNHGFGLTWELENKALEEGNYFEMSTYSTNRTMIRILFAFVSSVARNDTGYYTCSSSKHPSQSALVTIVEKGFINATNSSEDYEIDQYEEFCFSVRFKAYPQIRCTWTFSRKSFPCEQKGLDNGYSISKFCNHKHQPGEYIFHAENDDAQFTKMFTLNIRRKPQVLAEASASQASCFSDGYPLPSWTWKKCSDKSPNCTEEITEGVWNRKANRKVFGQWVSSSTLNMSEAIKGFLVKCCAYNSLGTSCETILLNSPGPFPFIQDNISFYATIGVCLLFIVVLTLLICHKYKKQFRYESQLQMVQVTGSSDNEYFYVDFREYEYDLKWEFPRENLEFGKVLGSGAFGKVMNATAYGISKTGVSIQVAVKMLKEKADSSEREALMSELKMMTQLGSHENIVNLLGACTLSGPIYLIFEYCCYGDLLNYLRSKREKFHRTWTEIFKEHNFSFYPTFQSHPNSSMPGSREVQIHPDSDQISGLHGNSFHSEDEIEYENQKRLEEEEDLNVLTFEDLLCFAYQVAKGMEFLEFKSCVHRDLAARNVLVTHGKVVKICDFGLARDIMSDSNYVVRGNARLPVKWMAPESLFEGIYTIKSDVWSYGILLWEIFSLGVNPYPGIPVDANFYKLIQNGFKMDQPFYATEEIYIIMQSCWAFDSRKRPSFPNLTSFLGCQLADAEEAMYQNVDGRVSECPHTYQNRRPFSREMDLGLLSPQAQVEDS

[16] = target: Mitogen-activated protein kinase kinase kinase kinase 4 (Homo sapiens) (UniProt O95819); assay: Inhibition of MAP4K4 (unknown origin) at 1 uM relative to control
Sequence of Mitogen-activated protein kinase kinase kinase kinase 4 (Homo sapiens) (O95819 2-1239 limits assumed): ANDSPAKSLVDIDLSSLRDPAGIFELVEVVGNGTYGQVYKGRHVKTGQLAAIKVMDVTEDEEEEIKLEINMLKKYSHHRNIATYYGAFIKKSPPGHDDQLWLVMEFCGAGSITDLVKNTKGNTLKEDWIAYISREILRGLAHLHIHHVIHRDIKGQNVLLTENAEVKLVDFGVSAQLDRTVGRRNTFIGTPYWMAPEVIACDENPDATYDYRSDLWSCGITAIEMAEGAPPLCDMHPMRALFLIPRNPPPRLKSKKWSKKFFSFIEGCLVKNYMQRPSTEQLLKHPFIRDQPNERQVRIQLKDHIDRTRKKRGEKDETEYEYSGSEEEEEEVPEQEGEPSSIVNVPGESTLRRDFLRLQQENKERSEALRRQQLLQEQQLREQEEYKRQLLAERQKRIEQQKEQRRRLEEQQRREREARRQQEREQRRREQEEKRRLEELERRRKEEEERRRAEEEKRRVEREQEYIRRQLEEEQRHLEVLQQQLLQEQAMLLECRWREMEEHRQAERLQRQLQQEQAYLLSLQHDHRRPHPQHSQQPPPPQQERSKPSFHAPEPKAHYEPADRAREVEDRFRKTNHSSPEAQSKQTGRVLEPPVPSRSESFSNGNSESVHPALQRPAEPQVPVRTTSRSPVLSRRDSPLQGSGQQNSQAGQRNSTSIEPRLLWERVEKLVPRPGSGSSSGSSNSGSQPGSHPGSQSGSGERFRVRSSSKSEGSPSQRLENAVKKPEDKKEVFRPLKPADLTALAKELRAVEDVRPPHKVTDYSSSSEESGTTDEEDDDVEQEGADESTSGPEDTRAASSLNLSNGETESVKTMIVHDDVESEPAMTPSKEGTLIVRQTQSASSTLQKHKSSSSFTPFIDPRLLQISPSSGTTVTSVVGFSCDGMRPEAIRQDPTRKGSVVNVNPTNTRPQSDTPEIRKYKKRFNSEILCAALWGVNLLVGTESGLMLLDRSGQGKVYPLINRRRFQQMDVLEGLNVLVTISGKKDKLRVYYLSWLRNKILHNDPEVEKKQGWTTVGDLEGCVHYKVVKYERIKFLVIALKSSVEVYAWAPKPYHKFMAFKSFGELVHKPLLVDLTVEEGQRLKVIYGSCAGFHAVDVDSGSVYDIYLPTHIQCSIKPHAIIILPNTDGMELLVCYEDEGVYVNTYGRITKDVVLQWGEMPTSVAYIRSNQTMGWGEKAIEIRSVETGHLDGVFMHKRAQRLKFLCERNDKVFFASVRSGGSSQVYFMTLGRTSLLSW

[17] = target: Dual specificity protein kinase CLK4 (Homo sapiens) (UniProt Q9HAZ1); assay: Inhibition of CLK4 (unknown origin) at 1 uM relative to control
Sequence of Dual specificity protein kinase CLK4 (Homo sapiens) (Q9HAZ1 whole entry, looked up): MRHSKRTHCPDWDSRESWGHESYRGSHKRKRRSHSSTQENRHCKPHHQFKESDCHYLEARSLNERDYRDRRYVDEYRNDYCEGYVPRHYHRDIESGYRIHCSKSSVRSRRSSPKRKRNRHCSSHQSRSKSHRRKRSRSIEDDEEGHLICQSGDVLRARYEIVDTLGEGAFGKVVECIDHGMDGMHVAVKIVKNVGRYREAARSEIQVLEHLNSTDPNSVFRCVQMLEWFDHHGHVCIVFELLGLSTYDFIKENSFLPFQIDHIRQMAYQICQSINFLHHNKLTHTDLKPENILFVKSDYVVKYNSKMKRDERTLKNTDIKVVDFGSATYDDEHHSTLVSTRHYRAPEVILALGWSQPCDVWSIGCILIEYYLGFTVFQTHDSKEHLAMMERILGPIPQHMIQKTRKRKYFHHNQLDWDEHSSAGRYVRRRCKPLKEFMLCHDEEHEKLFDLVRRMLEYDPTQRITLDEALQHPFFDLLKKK

[18] = Drug uptake in synovial fluid of Lewis/Or1Rj naive rat model of joint inflammation administered intra-articularly pretreated with compound 72 hrs prior to LPS/MSU treatment measured after 4 hrs; format: ADME; conditions: in vivo, other, 76 h, route iart, dose < 240 µg
[19] = Drug concentration in Lewis/Or1Rj naive rat model of joint inflammation at >60 ug, IART pretreated with compound 72 hrs prior to LPS/MSU treatment measured after 4 hrs; format: ADME; conditions: in vivo, dose > 60 µg, read-out: Ct
[20] = Unbound drug concentration in Lewis/Or1Rj naive rat model of joint inflammation at >60 ug, IART pretreated with compound 72 hrs prior to LPS/MSU treatment measured after 4 hrs; format: ADME; conditions: in vivo, other, 76 h, dose > 60 µg
Rattus norvegicus [21] = assay: Downregulation of Cxcl1 mRNA level in meniscus of Lewis/Or1Rj naive rat model of joint inflammation administered intra-articularly pretreated with compound 72 hrs prior to LPS/MSU treatment measured after 4 hrs by qPCR analysis; format: functional, organism-based; conditions: dose <= 240.0 µg, route iart, time 76.0 hrs
Rattus norvegicus [22] = assay: Downregulation of Il6 mRNA level in meniscus of Lewis/Or1Rj naive rat model of joint inflammation administered intra-articularly pretreated with compound 72 hrs prior to LPS/MSU treatment measured after 4 hrs by qPCR analysis; format: functional, organism-based; conditions: dose <= 240.0 µg, route iart, time 76.0 hrs
Rattus norvegicus [23] = species on record: Rattus norvegicus; assay: Effect on Mmp3 mRNA level in meniscus of Lewis/Or1Rj naive rat model of joint inflammation >=30 ug, IART pretreated with compound 72 hrs prior to LPS/MSU treatment measured after 4 hrs by qPCR analysis; format: functional, organism-based; conditions: dose >= 30.0 µg, time 76.0 hrs
[24] = system: Mitogen-activated protein kinase kinase kinase 7 (TAK1, Rattus norvegicus); assay: In vivo inhibition of TAK1 in Lewis/Or1Rj naive rat model of joint inflammation assessed as reduction in CXCL1 level administered intra-articularly pretreated with compound 72 hrs prior to LPS/MSU treatment measured after 4 hrs; conditions: dose <= 240.0 µg, route iart, time 76.0 hrs
[25] = system: Mitogen-activated protein kinase kinase kinase 7 (TAK1, Rattus norvegicus); assay: In vivo inhibition of TAK1 in Lewis/Or1Rj naive rat model of joint inflammation assessed as reduction in CXCL1 level at 15 ug, IART pretreated with compound 72 hrs prior to LPS/MSU treatment measured after 4 hrs relative to control; conditions: dose 15.0 µg, time 76.0 hrs
[26] = Solubility in simulated synovial fluid; format: physicochemical
[27] = Lipophilicity, logD of compound; format: physicochemical; conditions: octanol/water
[28] = Toxicity in Sprague-Dawley rat assessed as drug tolerance at 50 ug, IART measured for 168 hrs by LC-MS/MS analysis; conditions: in vivo, other, dose 50 µg
[29] = Drug concentration in plasma of Sprague-Dawley rat at 50 ug, IART measured for 168 hrs by LC-MS/MS analysis; format: ADME, cell-free; conditions: dose 50 µg
[30] = Drug concentration in plasma of Sprague-Dawley rat at 50 ug, IART measured after 24 hrs by LC-MS/MS analysis; format: ADME, cell-free; conditions: dose 50 µg
[31] = Drug uptake in tibia of Sprague-Dawley rat assessed as accumulation at synovial membrane of tibial plateau at 50 ug, IART measured for 168 hrs by LC-MS/MS analysis; format: ADME, tissue-based; conditions: in vivo, other, dose 50 µg
[32] = Drug uptake in synovial fluid of Sprague-Dawley rat at 50 ug, IART measured after 72 hrs by LC-MS/MS analysis; format: ADME, tissue-based; conditions: in vivo, other, dose 50 µg
[33] = Drug uptake in tibia of Sprague-Dawley rat assessed as accumulation at cartilage tissue of tibial plateau at 50 ug, IART measured for 168 hrs by LC-MS/MS analysis; format: ADME, tissue-based; conditions: in vivo, other, dose 50 µg

| EC50 [1] [nM] | EC50 [2] [nM] | logP [3] | solubility thermodynamic at 20 h [4] [µM] | Drug uptake(free) [6] | half-life [7] [h] | concentration at 168 h [5] [nM] | fraction unbound at 4 h, 5 µM [8] | SMILES | other results |
| --- | --- | --- | --- | --- | --- | --- | --- | --- | --- |
| 501 | 1000 | 4 | 0.2 (≈ 0.0875 µg/mL) | Below_limit_of_detection | 11 | – | – | CC(=O)Nc1ccc(-c2cc(-c3cccc(C(N)=O)n3)no2)c(O[C@H]2CC[C@@H](O)CC2)n1 | Ct ([5]; in vivo, other, 168 h, dose 250 µg): Below_limit_of_detection |
| 200 | 251 | 2.8 | 12 (≈ 5.41 µg/mL) | – | – | – | – | CN(C)C(=O)c1ccc(-c2cc(-c3cccc(C(N)=O)c3)no2)c(O[C@H]2CC[C@@H](O)CC2)n1 | – |
| 251 | 631 | 2.4 | 0.13 (≈ 0.0742 µg/mL) | 221 nM | – | 489 | 0.452 | NC(=O)c1cccc(-c2cc(-c3ccc(NCC(=O)N4CCS(=O)(=O)CC4)nc3O[C@H]3CC[C@@H](O)CC3)on2)n1 | – |
| 79.4 | 79.4 | 3.3 | 1.8 (≈ 0.805 µg/mL) | 1550 nM | 93 | 9810 | 0.158 | CN1Cc2cc(-c3cc(-c4cccc(C(N)=O)c4)no3)c(O[C@H]3CC[C@@H](O)CC3)cc2C1=O | inhibition [9]: 77%; inhibition [10]: 15%; inhibition [11]: 86%; inhibition [12]: 88%; concentration at 168 h [13]: 42000 nM; concentration at 168 h [14]: 631000 nM; inhibition [15]: 97%; inhibition [16]: 100%; inhibition [17]: 88%; Drug uptake [18]: Dose-dependent-effect; concentration at 76 h [19]: ≥ 1000 nM; Drug uptake(free) [20]: 100 nM; Activity (Rattus norvegicus [21]): Dose-dependent-effect; Activity (Rattus norvegicus [22]): Dose-dependent-effect; Activity (Rattus norvegicus [23]): Not active; Less Profound Effect Observed; inhibition [24]: Dose-dependent-effect; inhibition [25]: > 90% |
| 126 | 1000 | 4.5 | – | – | – | – | – | COc1ccc(-c2cc(-c3cccc(C(N)=O)n3)no2)c(O[C@H]2CC[C@@H](O)CC2)n1 | – |
| 63.1 | 158 | 3.6 | 15 (≈ 5.93 µg/mL) | 11 nM | 21 | 120 | 0.088 | NC(=O)c1cccc(-c2cc(-c3ccc(N)nc3O[C@H]3CC[C@@H](O)CC3)on2)n1 | – |
| 158 | 126 | 2.8 | 10 (≈ 4.5 µg/mL) | – | – | – | – | CN(C)C(=O)c1ccc(-c2cc(-c3cccc(C(N)=O)c3)no2)c(O[C@H]2CC[C@@H](O)CC2)c1 | – |
| – | – | – | – | – | – | – | – | CC(C)CC(=O)Nc1cncc(-c2ccc3[nH]nc(-c4nc5c(-c6cccc(F)c6)cncc5[nH]4)c3c2)c1 [LORECIVIVINT] | solubility [26]: 0.8 µM (≈ 0.404 µg/mL); logD [27]: > 4.7 |
| 63.1 | 126 | > 4.7 | 1 (≈ 0.409 µg/mL) | 35 nM | 168 | 1840 | 0.019 | CNc1ccc(-c2cc(-c3cccc(C(N)=O)n3)no2)c(O[C@H]2CC[C@@H](O)CC2)n1 | – |
| 126 | 100 | 3 | 2 (≈ 0.961 µg/mL) | 326 nM | 80 | 1210 | 0.27 | CN(C)C(=O)CNc1ccc(-c2cc(-c3cccc(C(N)=O)n3)no2)c(O[C@H]2CC[C@@H](O)CC2)n1 | – |
| 158 | 251 | 3.8 | 4.5 (≈ 1.71 µg/mL) | < 1 nM | 7 | 14 | 0.056 | NC(=O)c1cccc(-c2cc(-c3cccnc3O[C@H]3CC[C@@H](O)CC3)on2)n1 | Activity [28]: Non-toxic; concentration at 168 h [29]: < 100 nM; concentration at 24 h [30]: 1 nM; Drug uptake [31]: Active; Drug uptake [32]: Active; Drug uptake [33]: Active |
| 126 | 79.4 | 3 | 2.9 (≈ 1.31 µg/mL) | – | – | – | – | CN(C)C(=O)c1ccc(-c2cc(-c3cccc(C(N)=O)n3)no2)c(O[C@H]2CC[C@@H](O)CC2)n1 | – |
| 50.1 | 631 | 2.8 | 2.2 (≈ 1.03 µg/mL) | – | – | – | – | CNC(=O)CNc1ccc(-c2cc(-c3cccc(C(N)=O)n3)no2)c(O[C@H]2CC[C@@H](O)CC2)n1 | – |
